Values quoted from earlier work in patent US8440655B2, “Combination therapy for the treatment of diabetes” (Theracos, Inc., priority 2010, dated 2013).

Experiments:
muscarinic receptor = settings: result in words
cardiac receptors = settings: (+) form compared to (−) form
cortical receptors = settings: (+) form compared to (−) isomer
[1] = at 90 degrees

SMILES | antimuscarinic activity (muscarinic receptor) | factor by which the (+) form is more potent than the (−) form (cardiac receptors) | factor by which the (+) form is more effective than the (−) isomer (cortical receptors) | half time of interconversion of the two forms [1]
Cc1scc2c1N(C(=O)CN1CCN(C)CC1)c1ccccc1NC2=O [(−) form] | considerably less active |  |  | 
Cc1scc2c1N(C(=O)CN1CCN(C)CC1)c1ccccc1NC2=O [(+) form of telenzepine] | potent antimuscarinic activity | 50 | 400 | 
Cc1scc2c1N(C(=O)CN1CCN(C)CC1)c1ccccc1NC2=O [Telenzepine, 4,9-Dihydro-3-methyl-4-[(4-methyl-1-piperazinyl)acetyl]-10H-thieno[3,4-b][1,5]benzodiazepin-10-one] |  |  |  | approximately 200 hours
